Measured values reported in patent US9403810B2, “Carboxamide derivatives” (Novartis AG, priority 2014, dated 2016).

Biological target: Smurf-1 (Homo sapiens (Human), UniProt Q9HCE7)
Assay: HECT E3 ligase autoubiquitinylation TR-FRET assay (Smurf-1)
Format: biochemical
Settings: 8-point dose-response curve, 3 nM to 10 uM; 45 min incubation
Text: To determine the HECT E3 ligase selectivity of the compounds, a panel of biochemical HECT E3 ligase autoubiquitinylation assays was employed (Smurf-1, Smurf-2, WWP1, WWP2, ITCH, Nedd4, Nedd4L and E6AP). The conjugation of ubiquitin to a protein substrate is a multistep process. In an initial ATP-requiring step, a thioester bond is formed between the carboxyl terminus of ubiquitin and an internal cystein residue of the ubiquitin-activating enzyme (E1). Activated ubiquitin is then transferred to a specific cystein residue of an ubiquitin-conjugating enzyme (E2). E2s donate ubiquitin to a HECT E3 ligase (E3) from which it is transferred to the substrate protein. HECT E3 ligases can auto-ubiquitinylate. This event is detected in the TR-FRET (Time-Resolved Fluorescence Resonance Energy Transfer) assay used in this panel. The reaction mix contains E1, E2, tagged-E3, biotin-conjugated ubiquitin, the compound and ATP in a suitable buffer and is incubated for 45 minutes to allow auto-ubiquitinylation of the E3 ligase. To measure the extent of ubiquitinylated E3 ligase by TR-FRET, the donor fluorophore Europium cryptate (Eu3+ cryptate), conjugated to streptavidin which subsequently binds to biotinylated ubiquitin, and the modified allophycocyanin XL665 (HTRF® primary acceptor fluorophore) coupled to a tag-specific antibody (HA, His or GST), which recognizes the respective E3 ligase fusion proteins, are added after the reaction is complete. When these two fluorophores are brought together by a bimolecular interaction (in this case ubiquitinylation of the E3 ligase), a portion of the energy captured by the Cryptate during excitation is released through fluorescence emission at 620 nm, while the remaining energy is transferred to XL665. This energy is then released by XL665 as specific fluorescence at 665 nm. Light at 665 nm is emitted only through FRET with Europium.
Test and reference compounds are prepared at 180× [final] in 90% DMSO, and diluted 1:3 in 90% DMSO.
For the biochemical assay panel, 50 nl of the test compounds, reference compounds and buffer/DMSO control are transferred to the respective wells of a 384-well white GREINER “SMALL VOLUME” PS plate. The assay panel is run at room temperature on a Biomek FX liquid handling workstation. To the assay plates containing 50 nl compound or control solutions in 90% DMSO, 4.5 ul of E3 ligase solution were added per well, followed by 4.5 ul of the pre-incubated E1/E2/Ub mix or the pre-diluted ubiquitin (LOW control). Plates are shaken vigorously after each addition. In this assay the compound concentrations range from 3 nM to 10 uM in an 8-point dose-response curve.
After an incubation time of 45 min in the dark, the plates are transferred into the Pherastar fluorescence reader to measure the TR-FRET signal.

Smurf-1, sequence (Q9HCE7 whole entry): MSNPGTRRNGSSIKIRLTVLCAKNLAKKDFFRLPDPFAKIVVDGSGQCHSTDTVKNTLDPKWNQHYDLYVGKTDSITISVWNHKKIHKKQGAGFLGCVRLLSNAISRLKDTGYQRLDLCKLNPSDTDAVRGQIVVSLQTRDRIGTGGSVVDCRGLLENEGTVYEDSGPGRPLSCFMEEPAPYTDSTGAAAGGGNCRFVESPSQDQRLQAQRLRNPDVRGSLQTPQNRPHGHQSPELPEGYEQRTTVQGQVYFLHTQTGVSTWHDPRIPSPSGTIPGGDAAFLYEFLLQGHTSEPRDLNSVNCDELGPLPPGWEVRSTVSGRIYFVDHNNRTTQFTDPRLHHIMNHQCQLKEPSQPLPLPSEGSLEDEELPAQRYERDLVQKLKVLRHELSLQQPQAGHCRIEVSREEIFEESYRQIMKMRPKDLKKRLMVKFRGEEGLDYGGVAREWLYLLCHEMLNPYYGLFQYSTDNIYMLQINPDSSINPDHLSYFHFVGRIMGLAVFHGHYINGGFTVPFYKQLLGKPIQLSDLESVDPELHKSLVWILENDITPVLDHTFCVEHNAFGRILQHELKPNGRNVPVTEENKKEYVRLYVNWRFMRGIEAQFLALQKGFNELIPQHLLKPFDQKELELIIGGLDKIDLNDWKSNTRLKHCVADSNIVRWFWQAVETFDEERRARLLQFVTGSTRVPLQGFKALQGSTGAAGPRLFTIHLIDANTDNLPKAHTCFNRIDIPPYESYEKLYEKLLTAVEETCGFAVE

SMILES	IC50
Cc1c(C(=O)Nc2c(C)n(C)n(C3CCCCC3)c2=O)noc1/C=C\C(C)(C)C [Example 8, (Z)—N-(2-Cyclohexyl-1,5-dimethyl-3-oxo-2,3-dihydro-1H-pyrazol-4-yl)-5-(3,3-dimethylbut-1-en-1-yl)-4-methylisoxazole-3-carboxamide]	46 nM
Cc1c(C(=O)Nc2c(C)n(C)n(C3CCCCC3)c2=O)noc1C1CCCCC1 [Example 10, 5-Cyclohexyl-N-(2-cyclohexyl-1,5-dimethyl-3-oxo-2,3-dihydro-1H-pyrazol-4-yl)-4-methylisoxazole-3-carboxamide]	50 nM
Cc1c(C(=O)Nc2c(C)n(C)n(C3CCCCC3)c2=O)noc1C1CCC2(CC1)OCCO2 [Example 11, N-(2-Cyclohexyl-1,5-dimethyl-3-oxo-2,3-dihydro-1H-pyrazol-4-yl)-4-methyl-5-(1,4-dioxaspiro[4.5]decan-8-yl)isoxazole-3-carboxamide]	420 nM
Cc1c(C(=O)Nc2c(C)n(C)n(C3CCCCC3)c2=O)noc1CCC(C)(C)C [Example 7, N-(2-Cyclohexyl-1,5-dimethyl-3-oxo-2,3-dihydro-1H-pyrazol-4-yl)-5-(3,3-dimethylbutyl)-4-methylisoxazole-3-carboxamide]	19 nM
CO[C@H]1C[C@@H](c2onc(C(=O)Nc3c(C)n(C)n(C4CCCCC4)c3=O)c2C)O[C@@H](C(C)(C)C)C1 (racemic) [Example 13, 5-((2S,4R,6R)-6-(tert-butyl)-4-methoxytetrahydro-2H-pyran-2-yl)-N-(2-cyclohexyl-1,5-dimethyl-3-oxo-2,3-dihydro-1H-pyrazol-4-yl)-4-methylisoxazole-3-carboxamide and 5-((2R,4S,6S)-6-(tert-butyl)-4-methoxytetrahydro-2H-pyran-2-yl)-N-(2-cyclohexyl-1,5-dimethyl-3-oxo-2,3-dihydro-1H-pyrazol-4-yl)-4-methylisoxazole-3-carboxamide]	640 nM
Cc1c(C(=O)Nc2c(C)n(C)n(C3CCCCC3)c2=O)noc1C1CC=CC(C(C)C)O1 (mixture of isomers) [Example 18]	91 nM
Cc1c(C(=O)Nc2c(C)n(C)n(C3CCCCC3)c2=O)noc1[C@@H]1OCC(C)(C)O[C@H]1C [Example 20, N-(2-Cyclohexyl-1,5-dimethyl-3-oxo-2,3-dihydro-1H-pyrazol-4-yl)-4-methyl-5-((2R,3S)-3,5,5-trimethyl-1,4-dioxan-2-yl)isoxazole-3-carboxamide]	180 nM
Cc1c(C(=O)Nc2c(C)n(C)n(C3CCCCC3)c2=O)noc1C1=CCC(C(C)C)CC1 (centres unmarked) [Example 1, N-(2-Cyclohexyl-1,5-dimethyl-3-oxo-2,3-dihydro-1H-pyrazol-4-yl)-5-(4-isopropylcyclohex-1-en-1-yl)-4-methylisoxazole-3-carboxamide]	2.8 nM

Next, values leading:

IC50	SMILES
64 nM	Cc1c(C(=O)Nc2c(C)n(C)n(C3CCCCC3)c2=O)noc1C1=CCC2(CCCO2)CC1 (centres unmarked) [Example 2.1, N-(2-Cyclohexyl-1,5-dimethyl-3-oxo-2,3-dihydro-1H-pyrazol-4-yl)-4-methyl-5-(1-oxaspiro[4.5]dec-7-en-8-yl)isoxazole-3-carboxamide]
3.2 nM	Cc1c(C(=O)Nc2c(C)n(C)n(C3CCCCC3)c2=O)noc1C1=CCC(C(C)(C)C)CC1 (centres unmarked) [Example 1.4, 5-(4-(tert-Butyl)cyclohex-1-en-1-yl)-N-(2-cyclohexyl-1,5-dimethyl-3-oxo-2,3-dihydro-1H-pyrazol-4-yl)-4-methylisoxazole-3-carboxamide]
290 nM	Cc1c(C(=O)Nc2c(C)n(C)n(C3CCC3)c2=O)noc1[C@@H]1CCC[C@H](C(C)(C)C)O1 (single isomer, unassigned) [Example 15a, 5-((2S,6R)-6-(tert-Butyl)tetrahydro-2H-pyran-2-yl)-N-(2-cyclobutyl-1,5-dimethyl-3-oxo-2,3-dihydro-1H-pyrazol-4-yl)-4-methylisoxazole-3-carboxamide or 5-((2R,6S)-6-(tert-Butyl)tetrahydro-2H-pyran-2-yl)-N-(2-cyclobutyl-1,5-dimethyl-3-oxo-2,3-dihydro-1H-pyrazol-4-yl)-4-methylisoxazole-3-carboxamide]
33 nM	Cc1c(C(=O)Nc2c(C)n(C)n(C3CCCCC3)c2=O)noc1C1=CCC(C(F)(F)F)CC1 (centres unmarked) [Example 1.7, N-(2-Cyclohexyl-1,5-dimethyl-3-oxo-2,3-dihydro-1H-pyrazol-4-yl)-4-methyl-5-(4-(trifluoromethyl)cyclohex-1-en-1-yl)isoxazole-3-carboxamide]
490 nM	CC1=CCC(c2onc(C(=O)Nc3c(C)n(C)n(C4CCCCC4)c3=O)c2C)OC1 (centres unmarked) [Example 21.2, N-(2-cyclohexyl-1,5-dimethyl-3-oxo-2,3-dihydro-1H-pyrazol-4-yl)-4-methyl-5-(5-methyl-3,6-dihydro-2H-pyran-2-yl)isoxazole-3-carboxamide]
1.8 nM	CCC1CC=C(c2onc(C(=O)Nc3c(C)n(C)n(C4CCCCC4)c3=O)c2C)CC1 (centres unmarked) [Example 1.3, N-(2-Cyclohexyl-1,5-dimethyl-3-oxo-2,3-dihydro-1H-pyrazol-4-yl)-5-(4-ethylcyclohex-1-en-1-yl)-4-methylisoxazole-3-carboxamide]
